Values of other authors as cited in patent US7378261B2, “Method for preparing para-hydroxystyrene by biocatalytic decarboxylation of para-hydroxycinnamic acid in a biphasic reaction medium” (E.I. du Pont de Nemours and Company, priority 2003, dated 2008).

Conditions: logarithm of solvent's partition coefficient in standard octanol:water mixture

Question: With `CCCCCCCCC(C)O` (centres unmarked) [2-decanol] as the compound, how does the “log P” value read?
Answer: 3.71

Question: For `CCCCCC(C)O` (centres unmarked) [2-heptanol], which “log P” value is on record?
Answer: 2.24

Question: Which “log P” value does the source give for `CCCCCCCC(C)O` (centres unmarked) [2-nonanol] here?
Answer: 3.22

Question: With `CCCCCCCCCC(C)=O` [2-undecanone] as the compound, how does the “log P” value read?
Answer: 4.21

Question: Which “log P” value does the source give for `CCCCCCCC(=O)CC` [3-decanone] here?
Answer: 3.2

Question: With `CCCCCCC(O)CCC` (centres unmarked) [4-decanol] as the compound, how does the “log P” value read?
Answer: 3.71

Question: Which “log P” value does the source give for `CCCCCCC(=O)CCC` [4-decanone] here?
Answer: 3.2

Question: Which “log P” value does the source give for `CCCCCC` [hexane] here?
Answer: 3.9
